Target: T1, autotaxin (ATX) (Homo sapiens, UniProt Q13822)
T1 construct: conditioned medium from the human melanoma cell line, MDA-MB-4355, which endogenously expresses autotaxin; host or cells: MDA-MB-435S human melanoma cells; serum-free conditioned medium, concentrated 20-fold
Assay: Native Autotaxin Choline Release Assay
Assay type: biochemical
Conditions: autotaxin in conditioned medium from human melanoma cell line; choline released from LPC; read-out: MDA-MB-435S Assay IC50
Method: ATX activity is determined by measuring the amount of choline realeased from the substrate, lyosphophatidylcholine (LPC). […] After reaching confluency, the cells are washed twice with phosphate-buffered saline (PBS) then cultured for 48 hours in phenol-red free, serum-free DMEM containing sodium pyruvate. […] 100 μl of a color mix which contains 4.5 mM 4-aminoantipyrine, 2.7 mM N-ethyl-N-(2-hydroxy-3-sulfopropyl)-m-toluidine, 21 units/ml horseradish peroxidase and 3 units/ml choline oxidase in 50 mM Tris, pH 8, 4.5 mM MgCl2 is added and the incubation continued at 37° C. for 10 minutes before reading the absorbance at 555 nm. The concentration of released choline in the sample is determined from a choline standard curve and is equal to the concentration of LPA produced.

SMILES: Cc1[nH]c2ccccc2c1Sc1cccc(CC(=O)O)c1 [Compound 1-1, [3-(2-Methyl-1H-indol-3-ylsulfanyl)-phenyl]-acetic acid]
- IC50: > 1 µM

SMILES: Cc1[nH]c2cc(F)ccc2c1Sc1cccc(CC(=O)O)c1 [Compound 1-2, [3-(6-Fluoro-2-methyl-1H-indol-3-ylsulfanyl)-phenyl]-acetic acid]
- IC50: > 1 µM

SMILES: COc1ccc2c(Sc3cccc(CC(=O)O)c3)c(C)[nH]c2c1 [Compound 1-3, [3-(6-Methoxy-2-methyl-1H-indol-3-ylsulfanyl)-phenyl]-acetic acid]
- IC50: > 1 µM

SMILES: Cc1c(Sc2cccc(CC(=O)O)c2)c2ccccc2n1C [Compound 1-4, [3-(1,2-Dimethyl-1H-indol-3-ylsulfanyl)-phenyl]-acetic acid]
- IC50: > 1 µM

SMILES: Cc1c(Sc2cccc(CC(=O)O)c2)c2ccc(Cl)cc2n1C [Compound 1-5, [3-(6-Chloro-1,2-dimethyl-1H-indol-3-ylsulfanyl)-phenyl]-acetic acid]
- IC50: > 1 µM

SMILES: Cc1c(Sc2cccc(C(=O)O)c2)c2ccc(Cl)cc2n1C [Compound 1-6, 3-(6-Chloro-1,2-dimethyl-1H-indol-3-ylsulfanyl)-benzoic acid]
- IC50: > 1 µM

SMILES: Cc1c(Sc2cccc(CC(=O)O)c2)c2ccc(Cl)cc2n1CC(C)C [Compound 1-7, [3-(6-Chloro-1-isobutyl-2-methyl-1H-indol-3-ylsulfanyl)-phenyl]-acetic acid]
- IC50: > 1 µM

SMILES: COCCn1c(C)c(Sc2cccc(CC(=O)O)c2)c2ccc(Cl)cc21 [Compound 1-8, {3-[6-Chloro-1-(2-methoxy-ethyl)-2-methyl-1H-indol-3-ylsulfanyl]-phenyl}-acetic acid]
- IC50: 0.3 to 1 µM

SMILES: Cc1c(Sc2cccc(CC(=O)O)c2)c2ccccc2n1Cc1ccccc1 [Compound 1-9, [3-(1-Benzyl-2-methyl-1H-indol-3-ylsulfanyl)-phenyl]-acetic acid]
- IC50: > 1 µM

SMILES: Cc1c(Sc2cccc(C(=O)O)c2)c2ccc(Br)cc2n1Cc1ccccc1 [Compound 1-10, 3-(1-Benzyl-6-bromo-2-methyl-1H-indol-3-ylsulfanyl)-benzoic acid]
- IC50: 0.3 to 1 µM

SMILES: Cc1c(Sc2cccc(C(=O)O)c2)c2ccc(-c3ccccc3)cc2n1Cc1ccccc1 [Compound 1-11, 3-(1-Benzyl-2-methyl-6-phenyl-1H-indol-3-ylsulfanyl)-benzoic acid]
- IC50: > 1 µM

SMILES: Cc1c(Sc2cccc(C(=O)O)c2)c2ccc(-c3cccnc3)cc2n1Cc1ccccc1 [Compound 1-12, 3-(1-Benzyl-2-methyl-6-pyridin-3-yl-1H-indol-3-ylsulfanyl)-benzoic acid]
- IC50: > 1 µM

SMILES: Cc1c(Sc2cccc(C(=O)O)c2)c2ccc(Cc3ccccc3)cc2n1Cc1ccccc1 [Compound 1-13, 3-(1,6-Dibenzyl-2-methyl-1H-indol-3-ylsulfanyl)-benzoic acid]
- IC50: > 1 µM

SMILES: Cc1c(Sc2cccc(CC(=O)O)c2)c2ccc(Cl)cc2n1Cc1ccccc1 [Compound 1-14, [3-(1-Benzyl-6-chloro-2-methyl-1H-indol-3-ylsulfanyl)-phenyl]-acetic acid]
- IC50: > 1 µM

SMILES: Cc1c(Sc2cccc(C(=O)O)c2)c2ccc(Cl)cc2n1Cc1ccccc1 [Compound 1-15, 3-(1-Benzyl-6-chloro-2-methyl-1H-indol-3-ylsulfanyl)-benzoic acid]
- IC50: 0.3 to 1 µM

SMILES: Cc1c(Oc2cccc(CC(=O)O)c2)c2ccc(Cl)cc2n1Cc1ccccc1 [Compound 1-16, [3-(1-Benzyl-6-chloro-2-methyl-1H-indol-3-yloxy)-phenyl]-acetic acid]
- IC50: > 1 µM

SMILES: Cc1c(Sc2cccc(CCC(=O)O)c2)c2ccc(Cl)cc2n1Cc1ccccc1 [Compound 1-17, 3-[3-(1-Benzyl-6-chloro-2-methyl-1H-indol-3-ylsulfanyl)-phenyl]-propionic acid]
- IC50: > 1 µM

SMILES: Cc1c(Sc2cccc(C(=O)O)c2)c2ccc(Cl)cc2n1Cc1ccc(F)cc1 [Compound 1-18, 3-[6-Chloro-1-(4-fluoro-benzyl)-2-methyl-1H-indol-3-ylsulfanyl]-benzoic acid]
- IC50: > 1 µM

SMILES: Cc1c(Sc2cccc(C(=O)O)c2)c2ccc(Cl)cc2n1C(C)c1ccccc1 (stereo not shown) [Compound 1-19, 3-[6-Chloro-2-methyl-1-(1-phenyl-ethyl)-1H-indol-3-ylsulfanyl]-benzoic acid]
- IC50: > 1 µM

SMILES: Cc1c(Sc2cccc(C(=O)O)c2)c2ccc(Cl)cc2n1Cc1ccc2ccccc2c1 [Compound 1-20, 3-(6-Chloro-2-methyl-1-naphthalen-2-ylmethyl-1H-indol-3-ylsulfanyl)-benzoic acid]
- IC50: > 1 µM

SMILES: Cc1c(Sc2cccc(C(=O)O)c2)c2ccc(Cl)cc2n1Cc1cccnc1 [Compound 1-21, 3-(6-Chloro-2-methyl-1-pyridin-3-ylmethyl-1H-indol-3-ylsulfanyl)-benzoic acid]
- IC50: < 0.3 µM

SMILES: Cc1c(Sc2cccc(C(=O)O)c2)c2ccc(Cl)cc2n1Cc1ccc(C(F)(F)F)nc1 [Compound 1-22, 3-[6-Chloro-2-methyl-1-(6-trifluoromethyl-pyridin-3-ylmethyl)-1H-indol-3-ylsulfanyl]-benzoic acid]
- IC50: > 1 µM

SMILES: Cc1c(Sc2cccc(C(=O)O)c2)c2ccc(Cl)cc2n1Cc1ccncc1 [Compound 1-23, 3-(6-Chloro-2-methyl-1-pyridin-4-ylmethyl-1H-indol-3-ylsulfanyl)-benzoic acid]
- IC50: < 0.3 µM

SMILES: Cc1c(Sc2cccc(C(=O)O)c2)c2ccc(Cl)cc2n1Cc1ccccn1 [Compound 1-24, 3-(6-Chloro-2-methyl-1-pyridin-2-ylmethyl-1H-indol-3-ylsulfanyl)-benzoic acid]
- IC50: 0.3 to 1 µM

SMILES: COc1c(C)cnc(Cn2c(C)c(Sc3cccc(C(=O)O)c3)c3ccc(Cl)cc32)c1C [Compound 1-25, 3-[6-Chloro-1-(4-methoxy-3,5-dimethyl-pyridin-2-ylmethyl)-2-methyl-1H-indol-3-ylsulfanyl]-benzoic acid]
- IC50: < 0.3 µM

SMILES: Cc1c(Sc2cccc(C(=O)O)c2)c2ccc(Cl)cc2n1-c1ccc(-c2ccccc2)cc1 [Compound 1-27, 3-(1-Biphenyl-4-yl-6-chloro-2-methyl-1H-indol-3-ylsulfanyl)-benzoic acid]
- IC50: 0.3 to 1 µM

SMILES: Cc1c(Sc2cccc(C(=O)O)c2)c2ccc(Cl)cc2n1-c1cccc(-c2ccccc2)c1 [Compound 1-28, 3-(1-Biphenyl-3-yl-6-chloro-2-methyl-1H-indol-3-ylsulfanyl)-benzoic acid]
- IC50: 0.3 to 1 µM

SMILES: Cc1c(Sc2cccc(C(=O)O)c2)c2ccc(Cl)cc2n1-c1cccc(Cl)c1 [Compound 1-29, 3-[6-Chloro-1-(3-chloro-phenyl)-2-methyl-1H-indol-3-ylsulfanyl]-benzoic acid]
- IC50: < 0.3 µM

SMILES: Cc1c(Sc2cccc(C(=O)O)c2)c2ccc(Cl)cc2n1-c1cccnc1 [Compound 1-30, 3-(6-Chloro-2-methyl-1-pyridin-3-yl-1H-indol-3-ylsulfanyl)-benzoic acid]
- IC50: < 0.3 µM

SMILES: Cc1c(Sc2cccc(C(=O)O)c2)c2ccc(Cl)cc2n1-c1ccccn1 [Compound 1-31, 3-(6-Chloro-2-methyl-1-pyridin-2-yl-1H-indol-3-ylsulfanyl)-benzoic acid]
- IC50: 0.3 to 1 µM

SMILES: Cc1c(Sc2cccc(C(=O)O)c2)c2ccc(Cl)cc2n1-c1ccc(C(F)(F)F)nc1 [Compound 1-32, 3-[6-Chloro-2-methyl-1-(6-trifluoromethyl-pyridin-3-yl)-1H-indol-3-ylsulfanyl]-benzoic acid]
- IC50: 0.3 to 1 µM

SMILES: COc1ccc(-n2c(C)c(Sc3cccc(C(=O)O)c3)c3ccc(Cl)cc32)cn1 [Compound 1-33, 3-[6-Chloro-1-(6-methoxy-pyridin-3-yl)-2-methyl-1H-indol-3-ylsulfanyl]-benzoic acid]
- IC50: < 0.3 µM

SMILES: Cc1ccc(-n2c(C)c(Sc3cccc(C(=O)O)c3)c3ccc(Cl)cc32)cn1 [Compound 1-34, 3-[6-Chloro-2-methyl-1-(6-methyl-pyridin-3-yl)-1H-indol-3-ylsulfanyl]-benzoic acid]
- IC50: < 0.3 µM

SMILES: Cc1c(Sc2cccc(CC(=O)O)c2)c2ccc(Cl)cc2n1-c1cccnc1 [Compound 1-35, [3-(6-Chloro-2-methyl-1-pyridin-3-yl-1H-indol-3-ylsulfanyl)-phenyl]-acetic acid]
- IC50: < 0.3 µM

SMILES: CCOc1ccc(-n2c(C)c(Sc3cccc(C(=O)O)c3)c3ccc(Cl)cc32)cn1 [Compound 1-36, 3-[6-Chloro-1-(6-ethoxy-pyridin-3-yl)-2-methyl-1H-indol-3-ylsulfanyl]-benzoic acid]
- IC50: < 0.3 µM

SMILES: COc1cncc(-n2c(C)c(Sc3cccc(C(=O)O)c3)c3ccc(Cl)cc32)c1 [Compound 1-37, 3-[6-Chloro-1-(5-methoxy-pyridin-3-yl)-2-methyl-1H-indol-3-ylsulfanyl]-benzoic acid]
- IC50: < 0.3 µM

SMILES: Cc1c(Sc2cccc(C(=O)O)c2)c2ccc(Cl)cc2n1-c1cncnc1 [Compound 1-38, 3-(6-Chloro-2-methyl-1-pyrimidin-5-yl-1H-indol-3-ylsulfanyl)-benzoic acid]
- IC50: < 0.3 µM

SMILES: Cc1c(Sc2cccc(C(=O)O)c2)c2ccc(Cl)cc2n1-c1cnn(C)c1 [Compound 1-39, 3-[6-Chloro-2-methyl-1-(1-methyl-1H-pyrazol-4-yl)-1H-indol-3-ylsulfanyl]-benzoic acid]
- IC50: < 0.3 µM

SMILES: COc1ccc(C(=O)O)cc1Sc1c(C)n(-c2cccnc2)c2cc(Cl)ccc12 [Compound 1-40, 3-(6-Chloro-2-methyl-1-pyridin-3-yl-1H-indol-3-ylsulfanyl)-4-methoxy-benzoic acid]
- IC50: > 1 µM

SMILES: COc1ccc(C(=O)O)cc1Sc1c(C)n(-c2cnn(C)c2)c2cc(Cl)ccc12 [Compound 1-41, 3-[6-Chloro-2-methyl-1-(1-methyl-1H-pyrazol-4-yl)-1H-indol-3-ylsulfanyl]-4-methoxy-benzoic acid]
- IC50: > 1 µM

Source: patent US9000025B2, “Autotaxin inhibitors and uses thereof” (Amira Pharmaceuticals, Inc., priority 2010, dated 2015)
